PubChem BioAssay (NCI)
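Method: 48-hour compound exposure of cells in 96-well plates, five concentrations, linear interpolation of endpoints. At the TGI there is no net growth.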

How the values were obtained:
Test in all cases: DTP human tumour cell line panel, 48 h
[1] = tested on: 786-0 renal
[2] = tested on: A498 renal
[3] = tested on: A549 NSCLC
[4] = tested on: ACHN renal
[5] = tested on: BT-549 breast
[6] = tested on: CAKI-1 renal
[7] = tested on: COLO 205 colon
[8] = tested on: DU-145 prostate
[9] = tested on: EKVX NSCLC
[10] = tested on: HCT-116 colon
[11] = tested on: HCT-15 colon
[12] = tested on: HL-60(TB) leukemia
[13] = tested on: HOP-62 NSCLC
[14] = tested on: HOP-92 NSCLC
[15] = tested on: HS 578T breast
[16] = tested on: HT29 colon
[17] = tested on: IGROV1 ovarian
[18] = tested on: K-562 leukemia
[19] = tested on: KM12 colon
[20] = tested on: LOX IMVI melanoma
[21] = tested on: M14 melanoma
[22] = tested on: MALME-3M melanoma
[23] = tested on: MCF7 breast
[24] = tested on: MDA-MB-231 breast
[25] = tested on: MDA-MB-435
[26] = tested on: MOLT-4 leukemia
[27] = tested on: NCI-H226 lung
[28] = tested on: NCI-H23 lung
[29] = tested on: NCI-H460 lung
[30] = tested on: NCI-H522 lung
[31] = tested on: NCI/ADR-RES ovarian
[32] = tested on: OVCAR-3 ovarian
[33] = tested on: OVCAR-4 ovarian
[34] = tested on: OVCAR-5 ovarian
[35] = tested on: OVCAR-8 ovarian
[36] = tested on: PC-3 prostate
[37] = tested on: RPMI-8226 leukemia
[38] = tested on: RXF 393 renal
[39] = tested on: SF-268 CNS
[40] = tested on: SF-295 CNS
[41] = tested on: SF-539 CNS
[42] = tested on: SK-MEL-2 melanoma
[43] = tested on: SK-MEL-28 melanoma
[44] = tested on: SK-MEL-5 melanoma
[45] = tested on: SK-OV-3 ovarian
[46] = tested on: SN12C renal
[47] = tested on: SNB-19 CNS
[48] = tested on: SNB-75 CNS
[49] = tested on: SR leukemia
[50] = tested on: SW-620 colon
[51] = tested on: T-47D breast
[52] = tested on: TK-10 renal
[53] = tested on: U251 CNS
[54] = tested on: UACC-257 melanoma
[55] = tested on: UACC-62 melanoma
[56] = tested on: CCRF-CEM leukemia
[57] = tested on: HCC-2998 colon
[58] = tested on: UO-31 renal

OC1CCN(c2c3ccccc3nc3ccccc23)CC1
TGI [1]: > 100 µM | TGI [2]: 35.6 µM | TGI [3]: > 100 µM | TGI [4]: 26.4 µM | TGI [5]: 41.1 µM | TGI [6]: 50.5 µM | TGI [7]: 9.45 µM | TGI [8]: > 100 µM | TGI [9]: > 100 µM | TGI [10]: > 100 µM | TGI [11]: 39.7 µM | TGI [12]: > 100 µM | TGI [13]: > 100 µM | TGI [14]: > 100 µM | TGI [15]: > 100 µM | TGI [16]: 5.44 µM | TGI [17]: 40.6 µM | TGI [18]: > 100 µM | TGI [19]: > 100 µM | TGI [20]: > 100 µM | TGI [21]: > 100 µM | TGI [22]: 36.9 µM | TGI [23]: 10.3 µM | TGI [24]: 84.9 µM | TGI [25]: 54.9 µM | TGI [26]: > 100 µM | TGI [27]: > 100 µM | TGI [28]: > 100 µM | TGI [29]: 50.9 µM | TGI [30]: 7.42 µM | TGI [31]: > 100 µM | TGI [32]: > 100 µM | TGI [33]: 36.6 µM | TGI [34]: > 100 µM | TGI [35]: 79 µM | TGI [36]: > 100 µM | TGI [37]: > 100 µM | TGI [38]: 17.5 µM | TGI [39]: 34 µM | TGI [40]: 72.9 µM | TGI [41]: > 100 µM | TGI [42]: 27.6 µM | TGI [43]: 5.52 µM | TGI [44]: 35.6 µM | TGI [45]: 82.7 µM | TGI [46]: > 100 µM | TGI [47]: 75 µM | TGI [48]: 44.7 µM | TGI [49]: > 100 µM | TGI [50]: > 100 µM | TGI [51]: 4.78 µM | TGI [52]: 22.1 µM | TGI [53]: 51.1 µM | TGI [54]: 40.8 µM | TGI [55]: 99.3 µM

Cc1ccc(Nc2nc3nc[nH]c3c(=O)[nH]2)cc1CO
TGI [1]: 29.1 µM | TGI [3]: 10.2 µM | TGI [4]: 29.4 µM | TGI [5]: 28.4 µM | TGI [6]: 29.3 µM | TGI [56]: 36.2 µM | TGI [7]: 27.8 µM | TGI [8]: 33.6 µM | TGI [9]: 28 µM | TGI [57]: 28.9 µM | TGI [10]: 25.4 µM | TGI [11]: 29.9 µM | TGI [12]: 21.6 µM | TGI [14]: 21 µM | TGI [15]: 43.9 µM | TGI [16]: 22 µM | TGI [17]: 28.3 µM | TGI [18]: 40 µM | TGI [19]: 22.7 µM | TGI [20]: 36.5 µM | TGI [21]: 25.5 µM | TGI [22]: 30.4 µM | TGI [23]: 30.4 µM | TGI [24]: 24.7 µM | TGI [25]: 29.6 µM | TGI [26]: 34.3 µM | TGI [27]: 31.8 µM | TGI [28]: 33.9 µM | TGI [29]: 30.7 µM | TGI [30]: 24.3 µM | TGI [31]: 29.8 µM | TGI [32]: 29.2 µM | TGI [33]: 31.4 µM | TGI [34]: 33.6 µM | TGI [35]: 30.4 µM | TGI [36]: 25.4 µM | TGI [37]: 33.7 µM | TGI [38]: 30 µM | TGI [39]: 35.8 µM | TGI [40]: 29.6 µM | TGI [42]: 31.2 µM | TGI [43]: 32.1 µM | TGI [44]: 31.2 µM | TGI [45]: 27.7 µM | TGI [47]: 24.6 µM | TGI [48]: 29.2 µM | TGI [49]: 37.7 µM | TGI [50]: 32 µM | TGI [51]: 27.2 µM | TGI [52]: 31.9 µM | TGI [54]: 31.2 µM | TGI [55]: 25.9 µM | TGI [58]: 29.5 µM
